Experimental data published in patent publication US9751837B2, “Kinase inhibitors” (RESPIVERT LIMITED, priority 2014, dated 2017).
Converted amounts (≈) assume the structure as drawn. Read-outs that look alike come from different tables or passages of the source.

How the values were obtained:
GSK 3α = GSK 3α (Homo sapiens (Human), UniProt P49840); experiment: GSK 3α enzyme inhibition (Method 2), Z-LYTE FRET; format: biochemical; settings: read-out: IC50 Values for Enzyme Inhibition GSK3α
Protocol: The enzyme inhibitory activities of compounds disclosed herein are determined by FRET using synthetic peptides labelled with both donor and acceptor fluorophores (Z-LYTE, Invitrogen Ltd., Paisley, UK).
The following two assay variants can be used for determination of GSK 3α inhibition.
The inhibitory activities of compounds of the invention against the GSK 3α enzyme isoform (Invitrogen), are evaluated by determining the level of activation/phosphorylation of the target peptide. The GSK3-α protein (500 ng/mL, 2.5 μL) is mixed with the test compound (2.5 μL at either 4 μg/mL, 0.4 μg/mL, 0.04 μg/mL, or 0.004 μg/mL) for 2 hr at RT. The FRET peptide (8 μM, 2.5 μL), which is a phosphorylation target for GSK3α, and ATP (40 μM, 2.5 μL) are then added to the enzyme/compound mixture and the resulting mixture incubated for 1 hr. Development reagent (protease, 5 μL) is added for 1 hr prior to detection in a fluorescence microplate reader (Varioskan® Flash, ThermoFisher Scientific).
In all cases, the site-specific protease cleaves non-phosphorylated peptide only and eliminates the FRET signal. Phosphorylation levels of each reaction are calculated using the ratio of coumarin emission (donor) over fluorescein emission (acceptor), for which high ratios indicate high phosphorylation and low ratios indicate low phosphorylation levels.
This method follows the same steps as Method 1 above, but utilises a shorter period of mixing of the test compound (105 minutes instead of 2 hours) with the GSK3-α protein. In addition, the concentrations of test compound employed are either 10 μg/mL, 1 μg/mL, 0.1 μg/mL, or 0.01 μg/mL

Jurkat cells = experiment: Cell cytotoxicity assay (r); format: cell-based, human; settings: 24 hours
How it was run: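 Viability read by flow cytometry as the fraction of propidium iodide-negative cells (7.5 μg/mL PI, 15 min), relative to 1.0% DMSO control. Beforehand, 1×10^5 Jurkat cells in RPMI/10% FBS were treated 24 h at 37° C., 5% CO2 with test compound at final 20, 5 or 1 μg/mL.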

[1] = Solubility in fasted-state simulated colonic fluid (FaSSCoF) at pH 6.5; format: physicochemical; settings: 25 °C, pH 6.5, fassgf or other biorelevant, thermodynamic from solid
How it was run: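 Compounds were suspended at up to 2-10 mg/mL in pH 6.5 Tris/maleate FaSSCoF containing a five-bile-acid mixture, phosphatidylcholine, palmitic acid and BSA. After 24 h equilibration at 25° C the suspension was filtered and the filtrate quantified by HPLC peak area against a standard.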

[2] = Pharmacokinetics and total colon distribution after single oral administration; format: in vivo, male C57BL/6 mice; settings: male, C57BL/6, mouse, mice, Ex. 16 measured after oral 5 mg/kg of Ex. 19 (Na salt)
Protocol: Studies were conducted by Sai Life Sciences (Hinjewadi, Pune, India) to investigate the systemic pharmacokinetics and total colon tissue distribution of compounds of the invention. In particular, pharmacokinetic studies were carried out in male C57BL/6 mice following a single oral administration of the compound.

[3] = pH 6.5 FaSSCoF Solubility (mg/mL) Run 1
[4] = pH 6.5 FaSSCoF Solubility (mg/mL) Run 2
[5] = blood, read-out: Mean blood concentration
[6] = total colon, read-out: total colon level

Sequence of GSK 3α (P49840 whole entry): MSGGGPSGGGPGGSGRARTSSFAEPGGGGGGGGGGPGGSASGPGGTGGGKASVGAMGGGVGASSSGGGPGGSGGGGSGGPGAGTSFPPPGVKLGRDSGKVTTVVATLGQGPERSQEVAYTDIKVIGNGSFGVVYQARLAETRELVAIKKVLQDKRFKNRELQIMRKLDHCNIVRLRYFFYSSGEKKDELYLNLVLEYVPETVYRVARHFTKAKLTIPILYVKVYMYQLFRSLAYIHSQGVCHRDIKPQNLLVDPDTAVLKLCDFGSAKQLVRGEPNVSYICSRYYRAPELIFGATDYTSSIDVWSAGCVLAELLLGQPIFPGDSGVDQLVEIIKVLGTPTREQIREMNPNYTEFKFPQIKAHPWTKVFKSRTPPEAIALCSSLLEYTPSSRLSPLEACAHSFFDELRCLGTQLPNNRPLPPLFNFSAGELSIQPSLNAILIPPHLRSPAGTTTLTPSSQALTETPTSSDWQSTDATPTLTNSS

| IC50 (GSK 3α) | solubility thermodynamic at 24 h [1, 3] | solubility thermodynamic at 24 h [1, 4] | Compound | also measured |
| --- | --- | --- | --- | --- |
| 3.06 µM |  |  | COCCN(C)CCNC(=O)c1ccc(Nc2cc(Oc3ccc(NC(=O)Nc4cc(C(C)(C)C)cc(NS(C)(=O)=O)c4OC)c4ccccc34)ccn2)cc1OC [17(ad), 4-[[4-[[4-[[5-tert-butyl-3-(methanesulfonamido)-2-methoxy-phenyl]carbamoylamino]-1-naphthyl]oxy]-2-pyridyl]amino]-2-methoxy-N-[2-[2-methoxyethyl(methyl)amino]ethyl]-benzamide] | % Viability at 5 μg/mL (Jurkat cells; 5 μg/mL): 6.3%; % Viability at 20 μg/mL (Jurkat cells): 0.4% |
| 3 µM | 11 µg/mL (≈ 13.1 µM) | 12 µg/mL (≈ 14.3 µM) | COc1cc(Nc2cc(Oc3ccc(NC(=O)Nc4cc(C(C)(C)C)cc(NS(C)(=O)=O)c4OC)c4ccccc34)ccn2)cc(OC)c1C(=O)NCCN1CCOCC1 [17(ae), 4-[[4-[[4-[[5-tert-butyl-3-(methanesulfonamido)-2-methoxy-phenyl]carbamoylamino]-1-naphthyl]oxy]-2-pyridyl]amino]-2,6-dimethoxy-N-(2-morpholinoethyl)benzamide] |  |
| 0.68 µM | 10 µg/mL (≈ 11.9 µM) | 10 µg/mL (≈ 11.9 µM) | COc1cc(Nc2cc(Oc3ccc(NC(=O)Nc4cc(C(C)(C)C)cc(NS(C)(=O)=O)c4OC)c4ccccc34)ccn2)ccc1C(=O)N(C)CCCN1CCOCC1 [17(af), 4-[[4-[[4-[[5-tert-butyl-3-(methanesulfonamido)-2-methoxy-phenyl]carbamoylamino]-1-naphthyl]oxy]-2-pyridyl]amino]-2-methoxy-N-methyl-N-(3-morpholinopropyl)benzamide] |  |
| 1.82 µM |  |  | COc1cc(Nc2cc(Oc3ccc(NC(=O)Nc4cc(C(C)(C)C)cc(NS(C)(=O)=O)c4OC)c4ccccc34)ccn2)ccc1C(=O)NCC1CCN(C)CC1 [17(ak), 4-[[4-[[4-[[5-tert-butyl-3-(methanesulfonamido)-2-methoxy-phenyl]carbamoylamino]-1-naphthyl]oxy]-2-pyridyl]amino]-2-methoxy-N-[(1-methyl-4-piperidyl)methyl]benzamide] | % Viability at 1 μg/mL (Jurkat cells; 1 μg/mL): 99.0%; % Viability at 20 μg/mL (Jurkat cells): 0.4% |
| 4.49 µM | 15 µg/mL (≈ 18.2 µM) | 15 µg/mL (≈ 18.2 µM) | COc1cc(Nc2cc(Oc3ccc(NC(=O)Nc4cc(C(C)(C)C)cc(NS(C)(=O)=O)c4OC)c4ccccc34)ccn2)ccc1C(=O)NCCCN1CCOCC1 [17(b), 4-[[4-[[4-[[5-tert-butyl-3-(methanesulfonamido)-2-methoxy-phenyl]carbamoylamino]-1-naphthyl]oxy]-2-pyridyl]amino]-2-methoxy-N-(3-morpholinopropyl)benzamide] |  |
| > 12.1 µM | 8 µg/mL (≈ 9.69 µM) | 8 µg/mL (≈ 9.69 µM) | COc1cc(Nc2cc(Oc3ccc(NC(=O)Nc4cc(C(C)(C)C)cc(NS(C)(=O)=O)c4OC)c4ccccc34)ccn2)ccc1C(=O)N[C@@H](C)CN1CCOCC1 [17(v), 4-[[4-[[4-[[5-tert-butyl-3-(methanesulfonamido)-2-methoxy-phenyl]carbamoylamino]-1-naphthyl]oxy]-2-pyridyl]amino]-2-methoxy-N-[(1S)-1-methyl-2-morpholino-ethyl]benzamide] |  |
| 0.412 µM | 15 µg/mL (≈ 17.5 µM) | 9 µg/mL (≈ 10.5 µM) | COc1cc(Nc2cc(Oc3ccc(NC(=O)Nc4cc(C(C)(C)C)cc(NS(C)(=O)=O)c4OC)c4ccccc34)ccn2)ccc1C(=O)NCCOCCOCCC(=O)O [17(x), 3-[2-[2-[[4-[[4-[[4-[[5-tert-butyl-3-(methanesulfonamido)-2-methoxyphenyl]carbamoyl-amino]-1-naphthyl]oxy]-2-pyridyl]amino]-2-methoxy-benzoyl]amino]ethoxy]ethoxy]propanoic acid] |  |
| 0.139 µM | 6 µg/mL (≈ 9.23 µM) | 6 µg/mL (≈ 9.23 µM) | COc1cc(Nc2cc(Oc3ccc(NC(=O)Nc4cc(C(C)(C)C)cc(C(N)=O)c4OC)c4ccccc34)ccn2)ccc1C(=O)O [Example 3, 4-((4-((4-(3-(5-(tert-Butyl)-3-carbamoyl-2-methoxyphenyl)ureido)naphthalen-1-yl)oxy)pyridin-2-yl)amino)-2-methoxybenzoic acid] |  |
| 2.14 µM |  |  | COCCOCCOCCS(=O)(=O)c1ccc(Nc2cc(Oc3ccc(NC(=O)Nc4cc(C(C)(C)C)cc(NS(C)(=O)=O)c4OC)c4ccccc34)ccn2)cc1OC [Example 12, 1-[5-tert-Butyl-3-(methanesulfonamido)-2-methoxy-phenyl]-3-[4-[[2-[3-methoxy-4-[2-[2-(2-methoxyethoxy)ethoxy]ethylsulfonyl]anilino]-4-pyridyl]oxy]-1-naphthyl]urea] |  |
| 3.63 µM |  |  | COc1cc(Nc2cc(Oc3ccc(NC(=O)Nc4cc(C(C)(C)C)cc(NS(C)(=O)=O)c4OC)c4ccccc34)ccn2)ccc1S(=O)(=O)N(C)CCCN1CCOCC1 [Example 13, 1-[5-tert-Butyl-3-(methanesulfonamido)-2-methoxy-phenyl]-3-[4-[[2-[3-methoxy-4-[methyl(3-morpholinopropyl)sulfamoyl]anilino]-4-pyridyl]oxy]-1-naphthyl]urea] |  |
| 3.73 µM | 4 µg/mL (≈ 4.81 µM) | 4 µg/mL (≈ 4.81 µM) | COc1cc(Nc2cc(Oc3ccc(NC(=O)Nc4cc(C(C)(C)C)cc(NS(C)(=O)=O)c4OC)c4ccccc34)ccn2)ccc1C(=O)NCCOCCOCCO [Example 16, 4-[[4-[[4-[[5-tert-Butyl-3-(methanesulfonamido)-2-methoxy-phenyl]carbamoylamino]-1-naphthyl]oxy]-2-pyridyl]amino]-N-[2-[2-(2-hydroxyethoxy)ethoxy]ethyl]-2-methoxy-benzamide] | concentration at 0.5 h [2, 5]: 1.3 ng/mL; concentration at 1 h [2, 5]: 1.4 ng/mL; concentration at 2 h [2, 5]: 0.6 ng/mL; concentration at 4 h [2, 5]: 0 ng/mL; concentration at 6 h [2, 5]: 0 ng/mL; concentration at 8 h [2, 5]: 0.2 ng/mL; concentration at 12 h [2, 5]: 0 ng/mL; concentration at 24 h [2, 5]: 0 ng/mL; concentration at 0.5 h [2, 6]: 9.5 ng/g; concentration at 1 h [2, 6]: 110 ng/g; concentration at 2 h [2, 6]: 2400 ng/g; concentration at 4 h [2, 6]: 3350 ng/g; concentration at 6 h [2, 6]: 3320 ng/g; concentration at 8 h [2, 6]: 3420 ng/g; concentration at 12 h [2, 6]: 5090 ng/g; concentration at 24 h [2, 6]: 0 ng/g |
| 0.225 µM |  |  | COc1cc(Nc2cc(Oc3ccc(NC(=O)Nc4cc(C(C)(C)C)cc(NS(C)(=O)=O)c4OC)c4ccccc34)ccn2)cc(OC)c1C(=O)O [Example 46, 4-[[4-[[4-[[5-tert-Butyl-3-(methanesulfonamido)-2-methoxyphenyl]carbamoylamino]-1-naphthyl]oxy]-2-pyridyl]amino]-2,6-dimethoxybenzoic acid] |  |
